Laboratory results published in patent EP2439188B1, “p-Menthane-3,8-diol derivatives and insect repellents comprising them” (priority 2010, dated 2012).
Read-outs that look alike come from different tables or passages of the source.

How the values were obtained:
[1] = Solubility in water; type: physicochemical
Description: Tabelle 1 zeigt die Wasserlöslichkeit der erfindungsgemäßen Verbindung PMD-S (para-Menthane-3,8-diol Succinat) im Vergleich zu üblichen in Insektenschutzmitteln eingesetzten Wirkstoffen. Tabelle 1

[2] = system: Keratinozyten (SK-Mel-28); test: cells; type: cell-based; settings: Homo sapiens, SK-MEL-28, SK-Mel-28; concentration at which 50 % of the cells die, relative to untreated control cells; read-out: Keratinocyten Zellen IC50
Description: (§1) Hierzu wurden Zytotoxizitätsstudien an HeLa-Zellen und an Keratinozyten (SK-Mel-28) durchgeführt. Erstere Tests gelten als gute Alternative zu in vivo Draize Augenreizungstests, während letztere ein gutes Modell für die Hautkompatibilität sind.

[3] = system: HeLa-Zellen; test: cells; type: cell-based; settings: Homo sapiens, concentration at which 50 % of the cells die, relative to untreated control cells
Description: as §1

IC50 [2] [µM] | IC50 [3] [µM] | Löslichkeit in Wasser [1] | Löslichkeit in Wasser ([1]; bei 25°C) [g/L bei 25 °C] | SMILES | Löslichkeit in Wasser ([1]; bei 20°C) [g/L bei 20 °C]
 |  |  |  | CC[C@@H](C)OC(=O)N1CCCC[C@@H]1CCO (racemic) [KBR 3023, (RS)-sec-butyl-(RS)-2-(2hydroxyethyl) piperidine-1-carboxylat] | 8.2
8.1 ± 3.41 | 12.4 ± 1.89 | 1 g/L bei 25 °C |  | CCN(CC)C(=O)c1cccc(C)c1 [DEET, N,N-Diethyl-m-methylbenzamid] | 
17.5 ± 2.76 | 12.5 ± 1.17 | 70 g/L bei 20 °C |  | CCCCN(CCC(=O)OCC)C(C)=O [IR 3535, Ethyl-3-[(acetyl)(butyl)amino]propanoat] | 
14.2 ± 5.23 |  |  | 0.29 | CC1CCC(C(C)(C)O)C(O)C1 (stereo not drawn) [PMD, para-Menthan-3,8-diol] | 
